According to PubChem BioAssay AID212 (DTP/NCI, 2004):
“And” between values parts separate entries of the source, which are not always exact repeats. Equal values may be shown once. Results filed as inconclusive are left out.

Test system: BDF1 mice, colon carcinoma 38 sc, T/C %
Experiment: NCI In Vivo Anticancer Drug Screen. Data for tumor model Colon Carcinoma 38 (subcutaneous) in B6D2F1 (BDF1) mice
Settings: endpoint: median tumor weight (est.), higher = larger tumour
Method in brief: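 Mice with transplanted tumors are treated with compound or vehicle. Survival or tumor size is then measured in both groups. The ratio of treated to control gives the reported figure.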

[1] = dose: 12.5 mg/kg/injection, schedule: Q07DX002 (ip), vehicle: saline
[2] = dose: 25.0 mg/kg/injection, schedule: Q07DX002 (ip), vehicle: saline
[3] = dose: 50.0 mg/kg/injection, schedule: Q07DX002 (ip), vehicle: Klucel (hydroxypropylcellulose) (HPC)
[4] = dose: 200.0 mg/kg/injection, schedule: Q07DX002 (ip), vehicle: Klucel (hydroxypropylcellulose) (HPC)
[5] = dose: 400.0 mg/kg/injection, schedule: Q07DX002 (ip), vehicle: Klucel (hydroxypropylcellulose) (HPC)
[6] = dose: 100.0 mg/kg/injection, schedule: Q07DX002 (ip), vehicle: saline with Tween-80
[7] = dose: 200.0 mg/kg/injection, schedule: Q07DX002 (ip), vehicle: saline with Tween-80

COP12(OCCO1)SC(C(F)(F)F)=C(C(F)(F)F)S2
T/C (dose: 0.75 mg/kg/injection, schedule: Q07DX002 (ip), vehicle: saline with Tween-80): 81 % of control | T/C (dose: 1.5 mg/kg/injection, schedule: Q07DX002 (ip), vehicle: saline with Tween-80): 92 % of control | T/C (dose: 3.0 mg/kg/injection, schedule: Q07DX002 (ip), vehicle: saline with Tween-80): 84 % of control | T/C (dose: 6.0 mg/kg/injection, schedule: Q07DX002 (ip), vehicle: saline with Tween-80): 83 % of control | T/C (dose: 12.0 mg/kg/injection, schedule: Q07DX002 (ip), vehicle: saline with Tween-80): 75 % of control

O=C[C@@H](CO)O[C@H](C=O)n1cnc2c(=O)[nH]cnc21
T/C (dose: 18.7 mg/kg/injection, schedule: Q07DX002 (ip), vehicle: saline): 168 % of control | T/C (dose: 37.5 mg/kg/injection, schedule: Q07DX002 (ip), vehicle: saline): 105 % of control | T/C (dose: 75.0 mg/kg/injection, schedule: Q07DX002 (ip), vehicle: saline): 121 % of control | T/C (dose: 150.0 mg/kg/injection, schedule: Q07DX002 (ip), vehicle: saline): 100 % of control | T/C (dose: 300.0 mg/kg/injection, schedule: Q07DX002 (ip), vehicle: saline): 120 % of control | T/C (dose: 600.0 mg/kg/injection, schedule: Q07DX002 (ip), vehicle: saline): 86 % of control

CC(C)CCCCCCCCCCCCC(=O)NCC(=O)NC1C(O)C(O)C(Nc2ncnc3nc[nH]c23)OC1C(O)CO (configuration not stated)
T/C (dose: 0.13 mg/kg/injection, schedule: Q07DX002 (ip), vehicle: saline): 110 % of control | T/C (dose: 0.25 mg/kg/injection, schedule: Q07DX002 (ip), vehicle: saline): 114 % of control | T/C (dose: 1.0 mg/kg/injection, schedule: Q07DX002 (ip), vehicle: saline): 71 % of control | T/C (dose: 1.0 mg/kg/injection, schedule: Q07DX002 (ip), vehicle: suspension in saline): 114 % of control | T/C (dose: 2.0 mg/kg/injection, schedule: Q07DX002 (ip), vehicle: saline): 87 % of control | T/C (dose: 2.0 mg/kg/injection, schedule: Q07DX002 (ip), vehicle: suspension in saline): 113 % of control | T/C (dose: 4.0 mg/kg/injection, schedule: Q07DX002 (ip), vehicle: saline): 76 % of control | T/C (dose: 4.0 mg/kg/injection, schedule: Q07DX002 (ip), vehicle: suspension in saline): 42 % of control

CC1(C)COCN1COCCOCN1COCC1(C)C
T/C [1]: 87 % of control | T/C [2]: 109 % of control and 112 % of control | T/C (dose: 50.0 mg/kg/injection, schedule: Q07DX002 (ip), vehicle: saline): 80 % of control and 95 % of control | T/C (dose: 100.0 mg/kg/injection, schedule: Q07DX002 (ip), vehicle: saline): 81 % of control and 88 % of control

CS(=O)(=O)OCCN(CCOS(C)(=O)=O)c1ccc(C=Nc2ccc(-c3csc(COc4ccccc4)n3)cc2)cc1
T/C [3]: 158 % of control | T/C [4]: 97 % of control and 100 % of control | T/C [5]: 46 % of control

O=C1C=CC(=O)N1c1ccc(Cl)cc1
T/C (dose: 1.25 mg/kg/injection, schedule: Q07DX002 (ip), vehicle: Klucel (hydroxypropylcellulose) (HPC)): 32 % of control | T/C (dose: 10.0 mg/kg/injection, schedule: Q07DX002 (ip), vehicle: Klucel (hydroxypropylcellulose) (HPC)): 61 % of control and 73 % of control | T/C (dose: 20.0 mg/kg/injection, schedule: Q07DX002 (ip), vehicle: Klucel (hydroxypropylcellulose) (HPC)): 60 % of control and 67 % of control

Cc1ccc(-c2cc(=O)c3cccc(CC(=O)O)c3o2)cc1
T/C [6]: 83 % of control | T/C [7]: 50 % of control

Cn1cnc([N+](=O)[O-])c1[Se]c1nc(N)nc2nc[nH]c12
T/C (dose: 3.12 mg/kg/injection, schedule: Q07DX002 (ip), vehicle: water): 62 % of control | T/C (dose: 6.25 mg/kg/injection, schedule: Q07DX002 (ip), vehicle: water): 36 % of control | T/C (dose: 12.5 mg/kg/injection, schedule: Q07DX002 (ip), vehicle: water): 87 % of control | T/C (dose: 25.0 mg/kg/injection, schedule: Q07DX002 (ip), vehicle: water): 73 % of control | T/C (dose: 50.0 mg/kg/injection, schedule: Q07DX002 (ip), vehicle: water): 54 % of control | T/C (dose: 100.0 mg/kg/injection, schedule: Q07DX002 (ip), vehicle: water): 57 % of control

Cc1ccc(S(=O)(=O)N/N=C/C(=O)O)cc1
T/C (dose: 12.5 mg/kg/injection, schedule: Q07DX002 (ip), vehicle: other): 116 % of control | T/C (dose: 25.0 mg/kg/injection, schedule: Q07DX002 (ip), vehicle: other): 165 % of control | T/C (dose: 50.0 mg/kg/injection, schedule: Q07DX002 (ip), vehicle: other): 75 % of control | T/C (dose: 100.0 mg/kg/injection, schedule: Q07DX002 (ip), vehicle: other): 90 % of control | T/C (dose: 200.0 mg/kg/injection, schedule: Q07DX002 (ip), vehicle: other): 178 % of control

Cc1cc(O)c2c(c1O)C(=O)c1cccc(O)c1C2=O
T/C (dose: 0.18 mg/kg/injection, schedule: Q07DX002 (ip), vehicle: Klucel (hydroxypropylcellulose) (HPC)): 86 % of control | T/C (dose: 0.37 mg/kg/injection, schedule: Q07DX002 (ip), vehicle: Klucel (hydroxypropylcellulose) (HPC)): 60 % of control | T/C (dose: 0.75 mg/kg/injection, schedule: Q07DX002 (ip), vehicle: Klucel (hydroxypropylcellulose) (HPC)): 59 % of control | T/C (dose: 1.5 mg/kg/injection, schedule: Q07DX002 (ip), vehicle: Klucel (hydroxypropylcellulose) (HPC)): 110 % of control

CC1=C(/C=C/C(C)=C/C=C/C(C)=C/C=O)C(C)(C)CCC1
T/C [6]: 116 % of control

Nc1nc(-c2ccccc2)c(Br)c(=O)[nH]1
T/C [7]: 105 % of control | T/C (dose: 1600.0 mg/kg/injection, schedule: Q07DX002 (ip), vehicle: saline with Tween-80): 36 % of control and 43 % of control

Nc1nc(N)c2cc(CNc3ccc(C(=O)NC(CC(=O)O)CC(=O)O)cc3)ccc2n1
T/C (dose: 25.0 mg/kg/injection, schedule: Q07DX002 (ip), vehicle: Klucel (hydroxypropylcellulose) (HPC)): 120 % of control | T/C [3]: 97 % of control | T/C (dose: 100.0 mg/kg/injection, schedule: Q07DX002 (ip), vehicle: Klucel (hydroxypropylcellulose) (HPC)): 60 % of control | T/C [4]: 114 % of control | T/C [5]: 76 % of control

COC(=O)[C@@H]1c2cc3c(c(O)c2[C@@H](OC)C[C@@]1(C)O)C(=O)c1c(O)cc2c(c1C3=O)OC1O[C@@]2(C)[C@H](O)[C@@H](N(C)C)[C@@H]1O
T/C (dose: 6.25 mg/kg/injection, schedule: Q07DX002 (ip), vehicle: saline): 101 % of control | T/C [1]: 115 % of control and 121 % of control | T/C (dose: 12.5 mg/kg/injection, schedule: Q07DX003 (ip), vehicle: suspension in saline): 124 % of control | T/C [2]: 102 % of control | T/C (dose: 50.0 mg/kg/injection, schedule: Q07DX003 (ip), vehicle: suspension in saline): 114 % of control | T/C (dose: 100.0 mg/kg/injection, schedule: Q07DX003 (ip), vehicle: suspension in saline): 106 % of control | T/C (dose: 200.0 mg/kg/injection, schedule: Q07DX003 (ip), vehicle: suspension in saline): 104 % of control | T/C (dose: 400.0 mg/kg/injection, schedule: Q07DX003 (ip), vehicle: suspension in saline): 85 % of control

NCCCC(N)(C(=O)O)C(F)F (configuration not stated)
T/C (dose: 100.0 mg/kg/injection, schedule: Q07DX002 (ip), vehicle: distilled water + alcohol): 124 % of control | T/C (dose: 200.0 mg/kg/injection, schedule: Q07DX002 (ip), vehicle: distilled water + alcohol): 107 % of control | T/C (dose: 400.0 mg/kg/injection, schedule: Q07DX002 (ip), vehicle: distilled water + alcohol): 113 % of control and 124 % of control | T/C (dose: 800.0 mg/kg/injection, schedule: Q07DX002 (ip), vehicle: distilled water + alcohol): 124 % of control | T/C (dose: 1600.0 mg/kg/injection, schedule: Q07DX002 (ip), vehicle: distilled water + alcohol): 123 % of control and 100 % of control

CS(=O)(=O)c1ncc(Br)cn1
T/C (dose: 6.25 mg/kg/injection, schedule: Q07DX002 (ip), vehicle: saline with Tween-80): 106 % of control | T/C (dose: 12.5 mg/kg/injection, schedule: Q07DX002 (ip), vehicle: saline with Tween-80): 76 % of control | T/C (dose: 50.0 mg/kg/injection, schedule: Q07DX002 (ip), vehicle: saline with Tween-80): 94 % of control | T/C [6]: 113 % of control | T/C [7]: 106 % of control

CN(C)S(=O)(=O)CCNC(=O)N(CCCl)N=O
T/C (dose: 5.4 mg/kg/injection, schedule: Q07DX002 (oral), vehicle: saline): 108 % of control | T/C (dose: 7.5 mg/kg/injection, schedule: Q07DX002 (oral), vehicle: saline with Tween-80): 65 % of control | T/C (dose: 9.0 mg/kg/injection, schedule: Q07DX002 (oral), vehicle: saline): 106 % of control | T/C (dose: 15.0 mg/kg/injection, schedule: Q07DX002 (oral), vehicle: saline): 94 % of control | T/C (dose: 25.0 mg/kg/injection, schedule: Q07DX002 (oral), vehicle: saline): 18 % of control
